pKi: −log10 of the molar value.
Key:
[1] = Displacement of [3H]AMPA from AMPA receptor in Sprague-Dawley rat brain synaptic membrane after 30 mins by scintillation counting
[2] = Displacement of [3H]KAIN from kainate receptor in Sprague-Dawley rat brain synaptic membrane after 60 mins by scintillation counting
Glutamate NMDA receptor [3] = assay: Displacement of [3H]CPP from NMDA receptor in Sprague-Dawley rat brain synaptic membrane after 60 mins by scintillation counting
Glutamate NMDA receptor [4] = assay: Displacement of [3H]CGP 39653 from NMDA receptor in Sprague-Dawley rat brain synaptic membrane after 60 mins by scintillation counting

Structure (SMILES)	pKi [1]	pKi [2]	pKi (Glutamate NMDA receptor [3])	pKi (Glutamate NMDA receptor [4])
Cc1onc(C(=O)O)c1CC(N)C(=O)O (racemic)	7.70	5.20	< 4.00	
C[C@@H]1ON=C(C(=O)O)[C@@H]1C[C@H](N)C(=O)O (racemic)	< 4.00	< 4.00		4.74
C[C@@H]1ON=C(C(=O)O)[C@@H]1C[C@@H](N)C(=O)O (racemic)	< 4.00	< 4.00		4.22
C[C@H]1C(C(=O)O)=NO[C@H]1C[C@@H](N)C(=O)O (racemic)	5.39	< 4.00		5.52
C[C@H]1C(C(=O)O)=NO[C@H]1C[C@H](N)C(=O)O (racemic)	4.51	4.25		5.29
N[C@H](C[C@H]1CC(C(=O)O)=NO1)C(=O)O (racemic)	< 4.00	< 4.00		6.68
N[C@@H](C[C@H]1CC(C(=O)O)=NO1)C(=O)O (racemic)	< 4.00	< 4.00		6.02
N[C@@]1(C(=O)O)C[C@@H]2ON=C(C(=O)O)[C@@H]2C1 (racemic)	< 4.00	< 4.00		

Source: ChEMBL document CHEMBL1667798, “Synthesis of new isoxazoline-based acidic amino acids and investigation of their affinity and selectivity profile at ionotropic glutamate receptors” (Eur J Med Chem, 2011)
